Assays:
[1] = test system: rabbit infra-renal abdominal aorta, in-stent plaque; assay: Morphological analysis of intima/media ratios 28 days after in vivo stent implantation; parameters: species or system New Zealand White rabbits; conditions: 28 days after stent implantation, mean ± SE
Experimental: Age-matched adult male New Zealand White rabbits weighing 3.8–4.2 kg were used in accordance to NIH and institutional guidelines (n=6 animals per group). Under general anesthesia, an arteriotomy at the femoral artery was performed and a 5 Fr introducing sheath was placed. Under fluoroscopic guidance, aseptically prepared channeled stents filled with blank or angiostatin microspheres were deployed in the infra-renal abdominal aorta. Stents were post-dilated at 8 atm with a 5 mm angioplasty balloon (Jupiter, Cordis, Miami, Fla.) to a final lumen size of 125% above the baseline with care taken to ensure that […] were present within the stent segment. Pre- and post-deployment digital subtraction angiograms were recorded for the blank procedural control and angiostatin treatment groups. The rabbits were fed a 0.25% cholesterol diet after the intervention. Early 7 day follow up (n=3 per group) or late 28 day follow-up (n=3 per group) animals underwent total-body perfusion-fixation as previously described with immediate excision of the aortic segment containing stent. The 7 day aortic specimens were excised longitudinally and stents were removed. The resulting aortic segments were divided into two equal subsegments. One subsegment of each underwent fixation in 10% neutral buffered formalin and embedded in paraffin for light microscopic and morphologic analysis. The remaining subsegment of each specimen was snap frozen for molecular assay. The 28 days aortic specimens were fixed in 10% neutral buffered formalin and were embedded in PolyBed (Polysciences, Warrington, Pa.) for light microscopic and morphologic analysis.
The seven day analysis consisted of thick (5 μm) cross sections of the aortic wall were obtained from the paraffin-embedded specimens (n=9 sections per group). An elastic von Gieson-Masson trichrome or Elastica van Gieson-Hematoxylin double stain was performed for light microscopic analysis. For the 28 day specimen analysis (n=3 animals per group), each plastic-embedded aorta with stents was cut into five pieces longitudinally equal lengths. These pieces were stained by modified Verhoff elastic staining. Five cross sectional images of the stained aorta were obtained (n=15 sections per group) from one side of plastic pieces. […] Using Image Pro Plus software (Media Cybernetics, Silver Spring, Md.), the cross-sectional area of the intima and the media were determined by blinded observers. The ratio of intima area to media area subsequently tabulated for each, with the results presented as Table 2. Mean, standard error, and significance were determined.

[2] = test system: rabbit infra-renal abdominal aorta, in-stent plaque; assay: Local plaque stability parameters: macrophage infiltrate and endothelial density (CD31), 7 days; format: in vivo, New Zealand White rabbits; conditions: 7 days after stent implantation, stents releasing angiostatin, mean ± SE
Experimental: Age-matched adult male New Zealand White rabbits weighing 3.8–4.2 kg were used in accordance to NIH and institutional guidelines (n=6 animals per group). Under general anesthesia, an arteriotomy at the femoral artery was performed and a 5 Fr introducing sheath was placed. Under fluoroscopic guidance, aseptically prepared channeled stents filled with blank or angiostatin microspheres were deployed in the infra-renal abdominal aorta. Stents were post-dilated at 8 atm with a 5 mm angioplasty balloon (Jupiter, Cordis, Miami, Fla.) to a final lumen size of 125% above the baseline with care taken to ensure that […] were present within the stent segment. Pre- and post-deployment digital subtraction angiograms were recorded for the blank procedural control and angiostatin treatment groups. The rabbits were fed a 0.25% cholesterol diet after the intervention. […]
Cross sections at the 7 day time point evaluated above were obtained (two per segment) from each vessel and incubated with a primary monoclonal antibody to rabbit macrophage (clone RAM-11, 1/800 dilution, DAKO, Carpinteria, Calif.). The number of positive cells per cross section was counted by a blinded observer. […] Mean and standard error were tabulated for each group with significance determined as before and p values as reported.

## FGF: acidic FGF (Calbiochem) with endotoxin-free heparin as a stabilizer
[1]; stents releasing acidic FGF (200 ng with 1280 units heparin as stabilizer), P = 0.004 vs. controls
  Intima to media ratio: 1.634 ± 0.051

## alpha-1-antitrypsin [AAT]
[1]; stents releasing an elastase inhibitor (40 mg alpha-1-antitrypsin loaded), P = 0.0001 vs. controls
  Intima to media ratio: 1.322 ± 0.060

## TGFβ1: transforming growth factor β1 (Oncogene Research)
[1]; stents releasing TGFβ1 (2.0 μg loaded), P = 0.004 vs. controls
  Intima to media ratio: 1.803 ± 0.053

## angiostatin
[1]; stents releasing angiostatin (2.0 mg loaded in microspheres), P = 0.003 vs. controls
  Intima to media ratio: 1.610 ± 0.050
[2]
  Macrophages (number of cross-sectional macrophages): 34.889 ± 3.948 P = 0.0011 cells per cross section
[2]; P < 0.05 vs. controls
  CD31 (number of plaque microvessels): 0.111 ± 0.111

B1: Fas ligand: pro-apoptotic factor Fas ligand (Oncogene Research) (protein, UniProt P48023 130-281, looked up)
Tumor necrosis factor ligand …: QIGHPSPPPEKKELRKVAHLTGKSNSRSMPLEWEDTYGIVLLSGVKYKKGGLVINETGLYFVYSKVYFRGQSCNNLPLSHKVYMRNSKYPQDLVMMEGKMMSYCTTGQMWARSSYLGAVFNLTSADHLYVNVSELSLVNFEESQTFFGLYKL
[1]; stents releasing Fas Ligand (10 μg loaded), P < 0.05 vs. controls
  Intima to media ratio: 1.356 ± 0.053

— US7056339B2, “Drug delivery platform” (The Board of Trustees of the Leland Stanford Junior …, priority 2001, dated 2006)
